Test results: the supplement of paper PMC11061612

Experiments:
Experiment in all cases: combination Emax (second highest fraction inhibited in the dose matrix, 72 h); higher = more inhibition; extreme values may be limits of the assay
[1] = system: FLO-1 (Esophageal Adenocarcinoma)
In short: (§1)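 Cell lines in DMEM/F12 or RPMI with 10% FBS were plated in 1536-well plates, held 24 hours at 37°C, 5% CO2, then given two-drug dose matrices for 72 hours (DMSO typically 0.2%). Viability was read by CellTiter-Glo 2.0 luminescence and scaled as inhibition from 0 (vehicle wells) to 1 (blank wells). Combination Emax is the second-highest inhibition in the matrix; Bliss excess is observed combination effect minus expected EA + EB − EA·EB, EA and EB being single-agent effects.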

[2] = system: KYSE-70 (Esophageal Squamous Cell Carcinoma)
In short: as §1

[3] = system: NCI-H1155 (Non-Small Cell Lung Carcinoma)
In short: as §1

[4] = system: NKM-1 (Acute Myeloid Leukemia)
In short: as §1

[5] = system: LAMA-84 (Chronic Myelogenous Leukemia)
In short: as §1

[6] = system: NCI-H1623 (Lung Adenocarcinoma)
In short: as §1

[7] = system: RL95-2 (Endometrial Carcinoma)
In short: as §1

[8] = system: SJRH30 (Rhabdomyosarcoma)
In short: as §1

[9] = system: Becker (Low Grade Glioma)
In short: as §1

[10] = system: BALL-1 (B-Lymphoblastic Leukemia)
In short: as §1

[11] = system: SNU-175 (Colorectal Carcinoma)
In short: as §1

[12] = system: CML-T1 (Chronic Myelogenous Leukemia)
In short: as §1

[13] = system: Caov-3 (Ovarian Carcinoma)
In short: as §1

[14] = system: NCI-H1563 (Lung Adenocarcinoma)
In short: as §1

[15] = system: HTC-C3 (Thyroid Gland Carcinoma)
In short: as §1

[16] = system: COLO-684 (Endometrial Carcinoma)
In short: as §1

[17] = system: 786-0 (Kidney Carcinoma)
In short: as §1

[18] = system: NCI-H810 (Non-Small Cell Lung Carcinoma)
In short: as §1

[19] = system: RT4 (Bladder Carcinoma)
In short: as §1

[20] = system: Calu-6 (Non-Small Cell Lung Carcinoma)
In short: as §1

Row | Compound | combination Emax [1] | combination Emax [2] | combination Emax [3] | combination Emax [4] | combination Emax [5] | combination Emax [6] | combination Emax [7] | combination Emax [8] | combination Emax [9] | combination Emax [10] | combination Emax [11] | combination Emax [12] | combination Emax [13] | combination Emax [14] | combination Emax [15] | combination Emax [16] | combination Emax [17] | combination Emax [18] | combination Emax [19] | combination Emax [20]
1 | CCN(CCO)CCCOc1ccc2c(Nc3cc(CC(=O)Nc4cccc(F)c4)[nH]n3)ncnc2c1 [AZD2811] + O=C(c1cc(Cc2n[nH]c(=O)c3ccccc23)ccc1F)N1CCN(C(=O)C2CC2)CC1 [Olaparib] (first compound max 1 µM, 7x7, partner max 10 µM) | 0.377 | 0.203 | 0.443 | 0.723 | 0.488 | 0.442 | 0.73 | 0.255 | 0.12 | 0.848 | 0.611 | 0.829 | 0.82 | 0.158 | 0.248 | 0.291 | 0.149 | 0.646 | 0.377 | 0.239
2 | CN(C)CCCOc1ccc(-c2ccc3ncc4c(c3c2)n(C2CCOCC2)c(=O)n4C)cn1 [AZD0156] + C[C@@H]1COCCN1C2=NC(=NC(=C2)C3(CC3)[S@](=N)(=O)C)C4=C5C=CNC5=NC=C4 [AZD6738] (first compound max 1 µM, 7x7, partner max 10 µM) | 0.691 | 0.397 | 0.748 | 0.814 | 0.97 | 0.675 | 0.551 | 0.894 | 0.579 | 0.986 | 0.49 | 0.927 | 0.663 | 0.385 | 0.823 | 0.812 | 0.641 | 0.762 | 0.411 | 0.777
3 | COc1cccc(OCCCN)c1-c1cc(Nc2cnc(C#N)cn2)n[nH]1 [Prexasertib] + O=C(c1cc(Cc2n[nH]c(=O)c3ccccc23)ccc1F)N1CCN(C(=O)C2CC2)CC1 [Olaparib] (first compound max 1 µM, 7x7, partner max 10 µM) | 0.677 | 0.626 | 0.927 | 0.902 | 0.973 | 0.813 | 0.882 | 0.868 | 0.704 | 0.994 | 0.527 | 0.978 | 0.855 | 0.27 | 0.751 | 0.707 | 0.869 | 0.896 | 0.237 | 0.698
4 | CN(C)CCCOc1ccc(-c2ccc3ncc4c(c3c2)n(C2CCOCC2)c(=O)n4C)cn1 [AZD0156] + CCN(CCO)CCCOc1ccc2c(Nc3cc(CC(=O)Nc4cccc(F)c4)[nH]n3)ncnc2c1 [AZD2811] (first compound max 1 µM, 7x7, partner max 1 µM) | 0.267 | 0.161 | 0.377 | 0.473 | 0.296 | 0.0312 | 0.557 | 0.125 | 0.0601 | 0.634 | 0.604 | 0.259 | 0.809 | 0.311 | 0.0862 | 0.201 | 0.118 | 0.542 | 0.349 | 0.328
5 | CN(CCO)CC[C@H](CSc1ccccc1)Nc1ccc(S(=O)(=O)NC(=O)c2ccc(N3CCC([C@@H](O)c4ccccc4-c4ccc(Cl)cc4)CC3)cc2)cc1S(=O)(=O)C(F)(F)F [AZD4320] + CN(C)CCCOc1ccc(-c2ccc3ncc4c(c3c2)n(C2CCOCC2)c(=O)n4C)cn1 [AZD0156] (first compound max 1 µM, 7x7, partner max 1 µM) | 0.386 | 0.115 | 0.717 | 1 | 0.667 | 0.191 | 0.124 | 0.147 | 0.0869 | 1 | 0.467 | 0.987 | 0.541 | 0.321 | 0.37 | 0.148 | 0.0619 | 0.453 | 0.266 | 0.395
6 | COc1cccc(OCCCN)c1-c1cc(Nc2cnc(C#N)cn2)n[nH]1 [Prexasertib] + Cc1cc2ncnn2cc1Nc1ncc2c(n1)n(C1CCOCC1)c(=O)n2C [AZD7648] (first compound max 1 µM, 7x7, partner max 10 µM) | 0.703 | 0.615 | 0.92 | 0.965 | 0.99 | 0.804 | 0.893 | 0.935 | 0.707 | 0.999 | 0.586 | 0.98 | 0.797 | 0.466 | 0.843 | 0.844 | 0.896 | 0.896 | 0.404 | 0.796
